Where two headings read alike, the source gives them in different places.

Assay [1] relates to CsgA expression in E. coli MC4100. Briefly: Monocolonized Mouse Model: csgA expression in fecal pellets by qRT-PCR. To be noted: 30 mg/kg, day five of treatment, relative to mice treated with vehicle alone (FIGS. 4A-B).
The test system of assay [2] is CsgA gene expression (csgBAC promoter-GFP reporter) in E. coli UTI89. In words: In vitro live cell fluorescent reporter assay of CsgA transcription (Reporter Assay). In kind it is cell-based. To be noted: Escherichia coli. A digest of the protocol: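 Chromosomal single-copy csgBAC promoter–GFP reporter in E. coli UTI89, started at OD600 0.003 in YESCA broth with compound (0.14–100 μM, 1% DMSO), 20 h at 27 °C. GFP (ex 485/em 525 nm) background-subtracted and normalized to vehicle; IC50 and X[50] from curve fits. OD600 tracked growth effects.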

The test system of assay [3] is CsgA expression in WT E. coli. In words: qRT-PCR of CsgA expression in WT E. coli. In kind it is cell-based. To be noted: previously observed.
[4] abbreviates: read-out: Reporter Assay Abs IC50 (activity range), median Abs IC50 in the CsgA reporter assay, class symbol.
Where [5] appears, read: read-out: Reporter Assay Abs IC50 (μM), median Abs IC50 in the CsgA reporter assay, N/A = maximum expression reduction is <50% of control.

In the case of `CCCN1CC(C(=O)O)n2c(c(-c3cccc(C(F)(F)F)c3)c(Cc3cccc4ccccc34)cc2=O)S1(=O)=O` (racemic) [Compound 016, 8-(naphthalen-1-ylmethyl)-6-oxo-2-propyl-9-(3-(trifluoromethyl)phenyl)-3,4-dihydro-2H,6H-pyrido[1,2-e][1,2,5]thiadiazine-4-carboxylic acid 1,1-dioxide], the “csgA expression in E. coli MC4100 monocolonized mice” value in assay [1] is “reduction of csgA expression”. In addition, the IC50 in assay [2] (setting [4]) is 4.6 to 10 µM; in assay [2] (setting [5]) it was 5 µM.

Consider `Nc1c(Cc2cccc3ccccc23)c(-c2cccc(C(F)(F)F)c2)c2n(c1=O)C(C(=O)O)CS2` (racemic) [Compound 020, 6-amino-7-(naphthalen-1-ylmethyl)-5-oxo-8-(3-(trifluoromethyl)phenyl)-2,3-dihydro-5H-thiazolo[3,2-a]pyridine-3-carboxylic acid], for which the “CsgA expression via qRT-PCR” value in assay [3] is recorded as “inhibit CsgA expression”. The concentration for half-maximal inhibition (IC50) is 1.3 to 4.5 µM in assay [2] (setting [4]) and 3.9 µM in assay [2] (setting [5]).

`CN1CC(C(=O)O)n2c(c(-c3cccc(C(F)(F)F)c3)c(Cc3cccc4ccccc34)c(C(N)=O)c2=O)S1(=O)=O` (stereo not shown) [Compound 109, 7-carbamoyl-2-methyl-8-(naphthalen-1-ylmethyl)-6-oxo-9-(3-(trifluoromethyl)phenyl)-3,4-dihydro-2H,6H-pyrido[1,2-e][1,2,5]thiadiazine-4-carboxylic acid 1,1-dioxide]: the half-inhibitory concentration (IC50) in assay [2] (setting [4]) is 1.3 to 4.5 µM; in assay [2] (setting [5]) it was 1.9 µM.

Regarding `O=C(O)[C@@H]1CS(=O)(=O)c2c(-c3cccc(C(F)(F)F)c3)c(Cc3cccc4ccccc34)cc(=O)n21` (single isomer, unassigned) [Compound 010a, 7-(naphthalen-1-ylmethyl)-5-oxo-8-(3-(trifluoromethyl)phenyl)-2,3-dihydro-5H-thiazolo[3,2-a]pyridine-3-carboxylic acid 1,1-dioxide], the IC50 in assay [2] (setting [4]) is more than 10 µM; in assay [2] (setting [5]), 43.9 µM.

With `CN1CC(C(=O)O)n2c1c(-c1cccc(C(F)(F)F)c1)c(Cc1cccc3ccccc13)c(Br)c2=O` (stereo not shown) [Compound 119, 6-bromo-1-methyl-7-(naphthalen-1-ylmethyl)-5-oxo-8-(3-(trifluoromethyl)phenyl)-1,2,3,5-tetrahydroimidazo[1,2-a]pyridine-3-carboxylic acid], the values for the IC50 in assay [2] (setting [4]) and in assay [2] (setting [5]) were 1.3 to 4.5 µM and 2.5 µM, respectively.

Take `CN1CC(C(N)=O)n2c(c(-c3cccc(C(F)(F)F)c3)c(Cc3cccc4ccccc34)cc2=O)S1(=O)=O` (stereo not shown) [Compound 030, 2-methyl-8-(naphthalen-1-ylmethyl)-6-oxo-9-(3-(trifluoromethyl)phenyl)-3,4-dihydro-2H,6H-pyrido[1,2-e][1,2,5]thiadiazine-4-carboxamide 1,1-dioxide]: the IC50 in assay [2] (setting [4]) is 4.6 to 10 µM; in assay [2] (setting [5]) it was 5 µM.

In the case of `O=C(O)C1C[S+]([O-])c2c(-c3cccc(C(F)(F)F)c3)c(Cc3cccc4ccccc34)cc(=O)n21` (racemic) [Compound 027b, 7-(naphthalen-1-ylmethyl)-5-oxo-8-(3-(trifluoromethyl)phenyl)-2,3-dihydro-5H-thiazolo[3,2-a]pyridine-3-carboxylic acid 1-oxide], the results for the IC50 in assay [2] (setting [4]) and in assay [2] (setting [5]) were more than 10 µM and 77.5 µM, respectively.

Source of the values: patent US20230131899A1, “INHIBITORS OF MICROBIALLY INDUCED AMYLOID” (Axial Therapeutics, Inc., priority 2020, published 2023).
